“Also recorded” adds a separate entry of the source. Marks after values point to notes of the source that are not given here.
Experiments:
[1] = system: Motor Neurons per lumbar cord section; assay: Motor neuron counts, cresyl violet (Nissl) histology; format: in vivo, CD-1 mice
Method: (§1) The synthetic SG was mixed with finely ground Purina Chow mouse pellets (Mouse Diet™, Purina) to create the experimental pellets with a SG content of 1000 µg per pellet. Dry materials were blended with a sterile silicon spatula. For every 5 g of standard feed, 2.5 mL of doubly-distilled water (dd)H2O was added and the dough was kneaded and round up into pellets. A single sterol glucoside containing pellet was placed in the feeding tray each morning before the addition of regular mouse chow (ad libitum). All experimental pellets were entirely consumed by the mice each day. Control mice were fed standard mouse chow pellets of identical weight with no additives. SG feeding was conducted daily for 15 weeks and mice were behaviorally monitored until sacrifice at 35 weeks (time point 1) or 52 weeks (time point 2).
Mice were sacrificed for histological analysis at 35 weeks (35.9-48.6 g) and 52 weeks (41.2-51.4 g) of age. Age-matched control mice from each time point were included for comparison. The mice were deeply anaesthetized in a chamber with 4% isoflurane and perfused intracardially with filtered PBS (pH 7.4) until the effluent was cleared of blood (2 minutes), followed by perfusion with cold (4°C) 4% paraformaldehyde (PFA) in 0.1 M phosphate buffer (pH 7.4) for 5 minutes (30 mL). The PBS and the PFA were delivered through separate sterile platinum-cured silicon tubing (Cole-Parmer Canada Inc., Montreal, Canada) and peristaltic pumps (MasterFlex peristaltic pump, Cole-Parmer Canada Inc., Montreal, Canada). The brains and spinal cords were dissected out and fixed overnight at 4°C and equilibrated in increasing concentrations of sucrose in phosphate-buffered saline, pH 7.4 (10, 20, and 25%) over a 3-day period. Complete equilibration of the tissues was taken as the moment the tissues sank to the bottom of the scintillation tubes filled with 25% sucrose. After equilibration, the spinal cord and brain specimens were set in molds (Tissue-tek Cryomold, Sakura Finetek, USA, Torrance, CA) with an optimum cutting temperature (OCT) gel-sucrose mixture frozen by immersion in an isopentane (BDH Laboratory Supplies, UK) bath on dry ice and stored at -80°C until processing.
Cryosectioning of tissue: Frozen, coronal sections (spinal cord: 20 µm, brain: 30 µm) were cut with a Hacker-Bright cryostat (Hacker Instruments and Industries Inc., Winnsboro, SC) and mounted on charged glass slides (Superfrost Plus; Fisher Scientific, Pittsburgh, PA) so that adjacent CNS sections on each slide represented regions 100 µm and 150 µm apart for spinal cord and brain, respectively ((Tabata, Wilson et al. 2008)). The slides were stored at -80°C until histological processing. To ensure CNS sections were matched between animals, anatomical landmarks were verified using a mouse brain atlas (Paxinos and Franklin 2001).
Histology and quantification of motor neurons: Spinal cord and brain sections from each animal were stained for Nissl body substance. At room temperature (RT), sections were rinsed in a graded ethanol series (95%: 15 min; 70%: 1 min; 50%: 1 min) to rehydrate and remove lipids and fixation chemicals from the tissue. The tissue were then rinsed for 2 min in two exchanges of distilled water, stained with twice-filtered cresyl violet stain (1.25 g cresyl violet acetate, 0.75 mL glacial acetic acid to 250 mL distilled water), rinsed in distilled water (1 minute), and then dehydrated (50% ethanol: 1 minute; 1% glacial acetic acid-70% ethanol: 2 minutes; 95% ethanol: 2 minutes; 95% ethanol: 3 dips; 100% ethanol: 1 minute) and cleared in xylene. The slides were then cover-slipped in Entellen mountant (Merck, Darmstadt, Germany). The tissue mounted slides were selected with a randomized start and sampled starting from the lumbar 2 region to the 6th. […]

[2] = system: Phosphorylated tau aggregates; assay: Tau immunohistochemistry; format: in vivo, CD-1 mice; design: key to Phosphorylated tau aggregates: - = not present; + = present; details: for Phosphorylated tau aggregates: SG-fed
Method: as §1
Tissue-mounted slides were processed for fluorescence microscopy as follows: Sections were rinsed in coplin jars for 45 minutes at room temperature (RT) in three changes of PBS. Sections were then incubated at RT for 30 minutes in a blocking permeabilization solution made of 5% normal goat serum (NGS), 5% normal rabbit serum (NRS) or 5% BlokHen II (Aves Labs, Inc., Tigard, OR), 0.05% Triton X-100 and PBS. Subsequently, the blocking solution was tipped off and the slides were rinsed in PBS for 2 minutes. […]

[3] = SG-fed vs control, time-point 1, 35 wk
[4] = SG-fed vs control, time-point 2, 52 wk
[5] = SG-group over time, 35 to 52 wk

## CCC(C=CC(C)C1CCC2C3CC=C4CC(OC5OC(CO)C(O)C(O)C5O)CCC4(C)C3CCC12C)C(C)C (stereo not drawn) [SG]
[1]; [3]
  Chromatolytic α-MN: Chromatolytic α-MN (ns)
  Healthy α-MN: Healthy α-MN (ns)
  Pyknotic α-MN: Pyknotic α-MN (ns)
  Total γ-MN: Total γ-MN (ns)
[1]; [4]
  Chromatolytic α-MN: Chromatolytic α-MN (ns)
  Pyknotic α-MN: Pyknotic α-MN (ns)
  Total γ-MN: Total γ-MN (ns)
[1]; SG-fed vs control, time-point 2, 52 wk, table cell prints no unit
  Total α-MN: Total α-MN: -47*
[1]; [5]
  Chromatolytic α-MN: (control group & SG-group independently over time) (ns)
  Pyknotic α-MN: (control group and SG-group independently over time) (ns)
  Total γ-MN: (control group and SG-group independently over time) (ns)
[2]; SG-fed group, time-point 2, 52 wk
  Phosphorylated tau aggregates, animals affected: 2/8
[2]; SG-fed mice, none in non-treated mice
  Phosphorylated Tau aggregates: induced accumulation of phosphorylated tau; also recorded: observed
[2]; time-point 1, 35 wk
  Phosphorylated tau aggregates: -
[2]; time-point 2, 52 wk
  Phosphorylated tau aggregates: +

Reference: EP2181589A1, “Neurotoxic sterol glycosides” (Shaw, Christopher Ariel, priority 2008, dated 2010)
